The NIST ThermoML archive (doi:10.1021/acs.jced.9b00442)
Numbers after ± are expanded uncertainties.

Details: 100 kPa, Liquid; for electrical conductivity: Frequency=0.0006 MHz, Alternating current cell with electrodes; for viscosity: Concentric cylinders viscometry; for mass density: Vibrating tube method

CCCC[N+](CCO)(CCO)CCO.O=S(=O)([N-]S(=O)(=O)C(F)(F)F)C(F)(F)F
Details | electrical conductivity [S/m] | mass density [kg/m3] | viscosity [mPa·s]
283.15 K | 0.004 ± 0.001 | – | –
288.15 K | 0.007 ± 0.001 | – | 2752.6 ± 180
289.15 K | – | 1464.4 ± 1.2 | –
290.15 K | – | 1463.6 ± 1.2 | –
291.15 K | – | 1462.7 ± 1.2 | –
292.15 K | – | 1461.8 ± 1.2 | –
293.15 K | 0.011 ± 0.001 | 1461 ± 1.2 | 1684.4 ± 100
294.15 K | – | 1460.1 ± 1.2 | –
295.15 K | – | 1459.2 ± 1.2 | –
296.15 K | – | 1458.3 ± 1.2 | –
297.15 K | – | 1457.5 ± 1.2 | –
298.15 K | 0.016 ± 0.001 | 1456.6 ± 1.2 | 1072 ± 59
299.16 K | – | 1455.7 ± 1.2 | –
300.16 K | – | 1454.9 ± 1.2 | –
301.15 K | – | 1454 ± 1.2 | –
302.15 K | – | 1453.1 ± 1.2 | –
303.15 K | 0.024 ± 0.001 | 1452.3 ± 1.2 | 708.7 ± 37
304.15 K | – | 1451.4 ± 1.2 | –
305.15 K | – | 1450.5 ± 1.2 | –
306.15 K | – | 1449.7 ± 1.2 | –
307.15 K | – | 1448.8 ± 1.2 | –
308.15 K | 0.034 ± 0.001 | 1447.9 ± 1.2 | 484.5 ± 24
309.15 K | – | 1447.1 ± 1.2 | –
310.15 K | – | 1446.2 ± 1.2 | –
311.15 K | – | 1445.4 ± 1.1 | –
312.15 K | – | 1444.5 ± 1.1 | –
313.15 K | 0.046 ± 0.001 | 1443.6 ± 1.1 | 340.8 ± 16
314.15 K | – | 1442.8 ± 1.1 | –
315.15 K | – | 1441.9 ± 1.1 | –
316.15 K | – | 1441 ± 1.1 | –
317.15 K | – | 1440.2 ± 1.1 | –
318.15 K | 0.062 ± 0.001 | 1439.3 ± 1.1 | 245.9 ± 11
319.15 K | – | 1438.4 ± 1.1 | –
320.15 K | – | 1437.6 ± 1.1 | –
321.15 K | – | 1436.7 ± 1.1 | –
322.15 K | – | 1435.8 ± 1.1 | –
323.15 K | 0.082 ± 0.002 | 1435 ± 1.1 | 182 ± 7.9
324.15 K | – | 1434.1 ± 1.1 | –
325.15 K | – | 1433.2 ± 1.1 | –
326.15 K | – | 1432.4 ± 1.1 | –
327.15 K | – | 1431.5 ± 1.1 | –
328.15 K | – | 1430.6 ± 1.1 | 137.7 ± 5.8
329.15 K | – | 1429.8 ± 1.1 | –
330.15 K | – | 1428.9 ± 1.1 | –
331.15 K | – | 1428.1 ± 1.1 | –
332.15 K | – | 1427.2 ± 1.1 | –
333.15 K | – | 1426.3 ± 1.1 | 106.6 ± 4.4
334.15 K | – | 1425.5 ± 1.1 | –
335.16 K | – | 1424.6 ± 1.1 | –
336.15 K | – | 1423.8 ± 1.1 | –
337.15 K | – | 1422.9 ± 1.1 | –
338.15 K | – | 1422.1 ± 1.1 | 83.5 ± 3.4
339.15 K | – | 1421.2 ± 1.1 | –
340.15 K | – | 1420.4 ± 1.1 | –
341.15 K | – | 1419.5 ± 1.1 | –
342.15 K | – | 1418.7 ± 1.1 | –
343.15 K | – | 1417.8 ± 1.1 | 66.7 ± 2.7
344.15 K | – | 1417 ± 1.1 | –
345.15 K | – | 1416.1 ± 1.1 | –
346.15 K | – | 1415.3 ± 1.1 | –
347.15 K | – | 1414.5 ± 1.1 | –
348.15 K | – | 1413.6 ± 1.1 | 54.1 ± 2.2
349.15 K | – | 1412.8 ± 1.1 | –
350.15 K | – | 1411.9 ± 1.1 | –
351.15 K | – | 1411.1 ± 1.1 | –
352.15 K | – | 1410.3 ± 1.1 | –
353.15 K | – | 1409.4 ± 1.1 | 44.7 ± 1.8
354.15 K | – | 1408.6 ± 1.1 | –
355.15 K | – | 1407.7 ± 1.1 | –
356.15 K | – | 1406.9 ± 1.1 | –
357.15 K | – | 1406.1 ± 1.1 | –
358.15 K | – | 1405.2 ± 1.1 | 37 ± 1.5
359.15 K | – | 1404.4 ± 1.1 | –
360.15 K | – | 1403.6 ± 1.1 | –
361.15 K | – | 1402.8 ± 1.1 | –
362.16 K | – | 1401.9 ± 1.1 | –
363.15 K | – | 1401.1 ± 1.1 | 31.1 ± 1.3

C[N+](CCO)(CCO)CCO.O=S(=O)([N-]S(=O)(=O)C(F)(F)F)C(F)(F)F
Details | electrical conductivity [S/m] | mass density [kg/m3] | viscosity [mPa·s]
283.15 K | 0.01 ± 0.001 | – | –
288.15 K | 0.017 ± 0.001 | – | 1283.1 ± 73
289.15 K | – | 1574.9 ± 1.2 | –
290.15 K | – | 1574 ± 1.2 | –
291.15 K | – | 1573.1 ± 1.2 | –
292.15 K | – | 1572.2 ± 1.2 | –
293.15 K | 0.025 ± 0.001 | 1571.3 ± 1.2 | 838.5 ± 45
294.15 K | – | 1570.4 ± 1.2 | –
295.15 K | – | 1569.5 ± 1.2 | –
296.15 K | – | 1568.6 ± 1.2 | –
297.15 K | – | 1567.7 ± 1.2 | –
298.15 K | 0.036 ± 0.001 | 1566.8 ± 1.2 | 568.8 ± 29
299.16 K | – | 1565.9 ± 1.2 | –
300.16 K | – | 1565 ± 1.2 | –
301.15 K | – | 1564.1 ± 1.2 | –
302.15 K | – | 1563.2 ± 1.2 | –
303.15 K | 0.05 ± 0.001 | 1562.3 ± 1.2 | 397.8 ± 19
304.15 K | – | 1561.4 ± 1.2 | –
305.15 K | – | 1560.5 ± 1.2 | –
306.15 K | – | 1559.6 ± 1.2 | –
307.15 K | – | 1558.7 ± 1.2 | –
308.15 K | 0.068 ± 0.001 | 1557.8 ± 1.2 | 285.9 ± 13
309.15 K | – | 1556.9 ± 1.2 | –
310.15 K | – | 1556 ± 1.2 | –
311.15 K | – | 1555.1 ± 1.2 | –
312.15 K | – | 1554.2 ± 1.2 | –
313.15 K | 0.09 ± 0.002 | 1553.3 ± 1.2 | 211.1 ± 9.3
314.15 K | – | 1552.4 ± 1.2 | –
315.15 K | – | 1551.5 ± 1.2 | –
316.15 K | – | 1550.6 ± 1.2 | –
317.15 K | – | 1549.7 ± 1.2 | –
318.15 K | 0.117 ± 0.002 | 1548.8 ± 1.2 | 158.7 ± 6.8
319.15 K | – | 1547.9 ± 1.2 | –
320.15 K | – | 1547 ± 1.2 | –
321.15 K | – | 1546.1 ± 1.2 | –
322.15 K | – | 1545.2 ± 1.2 | –
323.15 K | 0.149 ± 0.003 | 1544.3 ± 1.2 | 122 ± 5.1
324.15 K | – | 1543.4 ± 1.2 | –
325.15 K | – | 1542.5 ± 1.2 | –
326.15 K | – | 1541.6 ± 1.2 | –
327.15 K | – | 1540.7 ± 1.2 | –
328.15 K | – | 1539.8 ± 1.2 | 95.6 ± 3.9
329.15 K | – | 1538.9 ± 1.2 | –
330.15 K | – | 1538.1 ± 1.2 | –
331.15 K | – | 1537.2 ± 1.2 | –
332.15 K | – | 1536.3 ± 1.2 | –
333.15 K | – | 1535.4 ± 1.2 | 76.5 ± 3.1
334.15 K | – | 1534.5 ± 1.2 | –
335.16 K | – | 1533.6 ± 1.2 | –
336.15 K | – | 1532.8 ± 1.2 | –
337.15 K | – | 1531.9 ± 1.2 | –
338.15 K | – | 1531 ± 1.2 | 61.7 ± 2.5
339.15 K | – | 1530.1 ± 1.2 | –
340.15 K | – | 1529.2 ± 1.2 | –
341.15 K | – | 1528.4 ± 1.2 | –
342.15 K | – | 1527.5 ± 1.2 | –
343.15 K | – | 1526.6 ± 1.2 | 50.6 ± 2
344.15 K | – | 1525.8 ± 1.2 | –
345.15 K | – | 1524.9 ± 1.2 | –
346.15 K | – | 1524 ± 1.2 | –
347.15 K | – | 1523.1 ± 1.2 | –
348.15 K | – | 1522.3 ± 1.2 | 42.1 ± 1.7
349.15 K | – | 1521.4 ± 1.2 | –
350.15 K | – | 1520.5 ± 1.2 | –
351.15 K | – | 1519.7 ± 1.2 | –
352.15 K | – | 1518.8 ± 1.2 | –
353.15 K | – | 1518 ± 1.2 | 35.6 ± 1.4
354.15 K | – | 1517.1 ± 1.2 | –
355.15 K | – | 1516.2 ± 1.2 | –
356.15 K | – | 1515.4 ± 1.2 | –
357.15 K | – | 1514.5 ± 1.2 | –
358.15 K | – | 1513.6 ± 1.2 | 30.1 ± 1.2
359.15 K | – | 1512.8 ± 1.2 | –
360.15 K | – | 1511.9 ± 1.2 | –
361.15 K | – | 1511.1 ± 1.2 | –
362.16 K | – | 1510.2 ± 1.2 | –
363.15 K | – | 1509.3 ± 1.2 | 25.8 ± 1
